# From the METLIN SMRT retention time set (Domingo-Almenara et al. 2019)
# Experiment: gradient 5% acetonitrile 3 min, to 50% in 2 min, to 85% in 15 min, held 3 min, 100 µL/min
# Conditions: column: Zorbax Extend-C18 2.1 x 50 mm; eluents: water / acetonitrile, 0.1% formic acid
# In short: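 Data were gathered over 3 months by HPLC coupled to a quadrupole time-of-flight mass spectrometer, operated in positive and negative ionization mode. Mixtures of ~100 pure standards ran on a Zorbax Extend-C18 column (2.1 × 50 mm, 1.8 μm) at 100 μL/min, with water and acetonitrile each containing 0.1% formic acid and dead and dwell volumes of 40 μL and 900 μL. Retention time was read from adduct peaks picked by computer and checked manually.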
row,RP-LC retention time [s],Structure (SMILES)
1,700,COc1ccc(-c2nc(-c3ccc4c(c3)nnn4CCN(C)C)no2)c(C)c1
2,810,COc1ccc(-c2ncc3c(n2)CCN(C(=O)Nc2cccc(C(C)=O)c2)C3)cc1
3,886,O=C(NCc1csc(-c2ccccc2)n1)C1CCN(S(=O)(=O)c2cccc3nsnc23)CC1
4,584,O=C(CCCn1nc(-c2ccc(F)cc2)ccc1=O)Nc1nc2ccccc2[nH]1
5,1200,Clc1ccccc1-c1csc(Cc2nc(-c3ccc4c(c3)OCO4)no2)n1
6,592,CNC(=O)N1Cc2ccccc2OC2(CCN(C(C)C)CC2)C1
7,1220,Cc1noc(C)c1S(=O)(=O)N1CCC2(CC1)CC(CCOc1ccc(F)cc1)CCO2 (stereo not drawn)
8,1150,Cc1sc(-c2noc(C(C)C)n2)cc1S(=O)(=O)N1CCC(C(=O)N2CCC(C)CC2)CC1
9,636,O=C(c1cn(-c2cc(N3CCCCC3)ncn2)cn1)N1CCN(c2ccccn2)CC1
10,783,O=C(c1ccc(OCC2CCCN2C(=O)C2CCC2)cc1)N1CCCC1 (stereo not drawn)
11,815,O=C(c1nc(-c2ccccc2)nc2c1OCO2)N1CCCC1
12,838,COc1ccc(OC)c(NC(=O)N2CCC3(CC2)N=C(c2ccc(F)cc2)C(=O)N3)c1
13,663,O=C1NCCCn2cc(S(=O)(=O)Nc3cccc(F)c3)cc21
14,589,CCCn1cnnc1C1CCCCN1C(=O)CCc1c(C)nn(C)c1C (stereo not drawn)
15,709,Cc1ccc2c(c1)C1CC(C)(O2)N(c2ccc(C(=O)O)cc2)C(=O)N1 (stereo not drawn)
16,602,Cc1nn2c(NCc3ccccn3)c3c(nc2c1-c1ccccc1)CCCC3
17,1130,Cc1ccc(-n2cc(C(=O)OCC(=O)OC(C)C)c3ccccc3c2=O)cc1
18,1110,CC(C)OC(=O)C(C(=O)OC(C)C)=C1SC=CS1
19,708,COc1ccccc1Oc1ccc(S(=O)(=O)NCC(=O)O)cc1
20,770,COc1ccc(N2CC(c3noc(-c4ccc5c(c4)OCO5)n3)CC2=O)cc1OC (stereo not drawn)
21,715,O=C(CC(SCCO)c1ccc([N+](=O)[O-])cc1)c1ccco1 (stereo not drawn)
22,575,CCOC(=O)Cc1csc(NC(=O)CN2CC(c3nc(C4CC4)no3)C2)n1

row,RP-LC retention time [s],Structure (SMILES)
1,840,CCOC(=O)N1CCC2(CC1)OC(=O)C(C)=C2C(=O)Nc1ccc(F)cc1F
2,872,Cc1ccsc1-c1nnc(CC(=O)N2CCN(c3ccccc3)CC2)o1
3,801,Cc1ccccc1NS(=O)(=O)c1cc2c(=O)n(C)ncn2c1
4,814,O=C(CC1CCCC1)NCCn1c(=O)n(Cc2ccc(F)cc2)c2cccnc21
5,788,Cc1cccc(NC(=O)C(=O)NCCc2cccs2)n1
6,862,Nc1nc(-c2ccccc2)nn1C(=O)c1ccccc1F
7,1120,O=C(NCc1ccc(Cl)cc1)C(=O)NCC1(c2cccs2)CCCC1
8,572,COCCNC(=O)CCC1CCN(c2cc(NC3CC3)ncn2)CC1
9,661,Cc1nc(-c2cn(C(C)C)c3ncccc23)sc1C(=O)N1CCN(CC(C)C)CC1
10,642,COCCC(=O)Nc1cnn(-c2ncc(N3CCCC3)cn2)c1
11,1140,Cc1ccc(CNC(=O)c2nnc(-c3oc4c(C)cccc4c3C)o2)o1
12,801,CN(C)C(=O)c1ccc2c(c1)n(Cc1cccc(F)c1)c(=O)c1ccnn12
13,1040,CCOC(=O)c1nnn(-c2ccc(OCC)cc2)c1C(=O)OCC
14,629,O=C(NCCN1CCOCC1)c1cc2n(n1)CCCN(Cc1ccc(Cl)cc1)C2=O
15,1060,Cc1cc(C)c2c(-n3cccc3)nn(Cc3ccc(C(=O)NCc4ccco4)cc3)c2n1
16,830,CCOc1ccccc1C1NC(=O)N(CC(=O)N2CCN(c3ccc(F)cc3)CC2)C2=C1C(=O)OC2 (stereo not drawn)
17,648,CNC(=O)N1CCC(CCc2nc(C3CCOCC3)no2)CC1
18,818,CC(C)n1c(N2CCN(C(=O)Cc3ccc(F)cc3)CC2)cc(=O)n(C(C)C)c1=O
19,935,COc1cccc(Cn2nc3n(Cc4ccc(C)cc4)c(=O)c4nn(C)cc4n3c2=O)c1
20,687,COC(=O)c1cccc(NC(=O)C2CC(=O)N(c3ccc4c(c3)CCN4C(C)=O)C2)c1 (stereo not drawn)
21,881,CC(C(=O)NCCCN(C)c1ccccc1)n1c(=O)c(C(F)(F)F)nc2ccccc21 (stereo not drawn)
22,897,Cc1ccccc1NC(=O)CSc1nnc2c3cc(-c4ccc(F)cc4)nn3ccn12

row,RP-LC retention time [s],Structure (SMILES)
1,1240,Cc1cc(C)cc(NC(=O)Cn2nc(N3CCCC(C)C3)c3ccccc3c2=O)c1 (stereo not drawn)
2,659,CC(C)c1nnc(C2CCN(C(=O)c3ccc(S(=O)(=O)N4CCOCC4)cc3)CC2)o1
3,612,CCc1nn(CC(=O)N2CCN(c3ccccn3)CC2)c(=O)c2cc3sccc3n12
4,1030,Cc1ccc(C(=O)Nc2nc(-c3ccc4c(c3)N(C)C(=O)CO4)c(C)s2)cc1
5,816,CC1(C(=O)NCc2ccccc2)Cn2cnc(C(=O)NCc3ccccc3Cl)c2C(=O)N1C1CC1 (stereo not drawn)
6,719,O=S1(=O)C[C@H](N2CCN(c3ncccn3)CC2)[C@@H](S(=O)(=O)c2cccs2)C1
7,886,Cc1nc(-c2csc(S(=O)(=O)N3CCC(C(=O)Nc4ccc(F)cc4C)CC3)c2)no1
8,1070,COc1ccc(NC(=O)Cn2nc3cc(C)nc(Nc4ccc(F)c(C)c4)n3c2=O)cc1
9,872,CCOC(=O)c1nnc2c(-c3ccc(Cl)cc3)c(C)nn2c1N
10,689,COc1ccc(CCNC(=O)CSc2nc3sc(C)cc3c(=O)n2C)cc1OC
11,962,Cc1ccc(CNC(=O)C2(C)CN(S(=O)(=O)c3ccccc3)CC(=O)N2c2cccc(F)c2)cc1 (stereo not drawn)
12,720,O=C(Nc1ccc2c(c1)OCCO2)NC1CCN(c2ccccc2)C1=O (stereo not drawn)
13,1320,CCCOc1nc2ccccc2nc1N1CCCC(C(=O)Nc2ccccc2CC)C1 (stereo not drawn)
14,935,CC(NC(=O)C1CCN(S(C)(=O)=O)c2cc(Cl)ccc2O1)c1ccccc1 (stereo not drawn)
15,1130,O=S(=O)(Nc1ccc(F)cc1)c1cccnc1Nc1cccc(Cl)c1
16,629,Cc1cc(C)n(Cc2ccc(C(=O)N3CCN(c4cc(=O)n(C)c(=O)n4C)CC3)o2)n1
17,855,O=C(CSc1nnc2c3sc(N4CCCC4)nc3ncn12)Nc1ccc(Cl)cc1
18,705,COc1ccc(C(=O)N2CC(n3cc(COCC4CC4)nn3)C2)c(OC)c1
19,579,CCOC(=O)c1c(C)[nH]c(CCC(=O)NCCN2CCN(C)CC2)c1C
20,959,Cc1ccccc1CNC(=O)C1(C)CCCN(C(=O)Nc2ccccc2C)C1 (stereo not drawn)
21,1120,CCC1CCC(c2nnc(-c3ccc([N+](=O)[O-])cc3)o2)CC1 (stereo not drawn)
22,936,CC(=O)N1CCCc2cc(S(=O)(=O)CCC(=O)N3CCN(c4cc(C)ccc4C)CC3)ccc21

row,RP-LC retention time [s],Structure (SMILES)
1,683,O=C(CCc1c(-c2ccccc2)nc2ccccn12)Nc1ccccc1Br
2,900,COCC(=O)N(CC(=O)N1CCc2sccc2C1COc1ccccc1F)CC(C)C (stereo not drawn)
3,630,COc1cc2c(cc1OC)C(C(=O)NCc1cccnc1)C(c1ccc(SC)cc1)N(C)C2=O (stereo not drawn)
4,1070,CCOc1ccc(S(=O)(=O)N2CCCC(C(=O)Nc3ccc(OC)cc3OC)C2)cc1C (stereo not drawn)
5,1180,CCc1nc(-n2cccc2)sc1C(=O)NC1CCC(C)CC1 (stereo not drawn)
6,804,CN(CC1CCOCC1)S(=O)(=O)c1ccccc1F
7,762,COCCn1cc(CCNC(=O)Nc2cccc(Cl)c2)c2cccnc21
8,1040,COc1ccc(-c2nc(CN(c3ccccc3)S(=O)(=O)c3cccs3)c(C)o2)cc1OC
9,841,O=C(c1ccc2cc[nH]c2c1)N1CCC2(CC1)N=C(c1ccc(Cl)cc1)NO2
10,568,COc1ncccc1CN(C)C(=O)COc1ccccc1
11,549,CNC(=O)[C@@H]1CN(C(=O)c2cnc(C)cn2)C[C@H]1c1n[nH]c(C)n1
12,652,CC(C)n1c(CCNC(=O)c2ccccc2F)nc2cccnc21
13,654,CCN1CCC2(CC1)OC(=O)C(C)=C2C(=O)NCCCc1ccccc1
14,675,COC(=O)C1C(=O)C2=C(CC1C)NC(=O)CC2c1cccc(C)c1 (stereo not drawn)
15,632,CCc1ccc(Nc2nc(C(=O)NCCN3CCCC3)nc3ccccc23)cc1
16,1170,O=S(=O)(c1cccc(C(F)(F)F)c1)N1CCc2nc(-c3ccc(F)cc3)ncc2C1
17,1070,CCc1cccc(C)c1Nc1c(-c2ccc(SC)cc2)nc2cnccn12
18,526,O=C(NCCc1ccccn1)C1(CCO)CCN(c2ncccn2)C1 (stereo not drawn)
19,1070,CCOc1ccc(-n2c(=O)c3sccc3n(Cc3nc(-c4ccccc4C)no3)c2=O)cc1
20,708,COc1ccc(NC(=O)NCCc2nc3cccnc3n2C2CCCC2)c(OC)c1
21,686,CCC(C)NC(=O)C1CC(=O)N(c2ccc3c(c2)CCN3C(=O)C2CC2)C1 (stereo not drawn)
22,587,O=C(CCc1c(-c2ccc(F)cc2)nc2ccccn12)NC1CC1
